Data published in ChEMBL document CHEMBL3988442, “University of Dundee, Small-Polar-MMV Screening Library” (2021).

Tests used:
[1] = microbe, parasite or virus in culture; conditions: Mycobacterium tuberculosis, 96 h, read-out: pIC50 (converted)
[2] = microbe, parasite or virus in culture; conditions: Mycobacterium tuberculosis, 72 h, read-out: pIC50 (converted)

| SMILES | IC50 [1] [µM] | IC50 [2] [µM] |
| --- | --- | --- |
| CN(C)c1cc(CNC(=O)c2ccc(Br)o2)ccn1 | > 501 | > 501 |
| COc1ccccc1CN1CCC(N)CC1 | > 501 | 130 |
| COC(=O)COc1ccc2c(c1)OCO2 | > 501 | 140 |
| CC(C(N)=O)N1CCC(=Cc2ccccc2)CC1 (stereo not drawn) | 364 | 290 |
| CCCn1nnnc1NCc1ccc(F)cc1 | 19.8 | 37.8 |
| Cc1cc(Br)oc1C(=O)Nc1ncccc1O | 157 | 322 |
| CC(C)c1nc(CSc2nnc(-c3cccs3)n2CC(N)=O)no1 | > 50.1 | 30.9 |
| Cc1nnc(SCCC(=O)N(C)Cc2ccc(Cl)s2)[nH]1 | 27.3 | > 50.1 |
| Cc1cccnc1CN(C)C(C(=O)O)c1ccc(-n2cccn2)cc1 (stereo not drawn) | 20.1 | 27 |
| O=S1(=O)CCCN1CCNc1ncc(Cl)cc1Cl | > 501 | 111 |
| CC(CO)(CO)NCc1cnn(-c2ccc(Br)cc2)c1 | 393 | 238 |
| NCc1nc(C(F)F)no1 | > 501 | 289 |
| N[C@H]1CCN(S(=O)(=O)c2ccc(F)c(C(F)(F)F)c2)C1 | 171 | 100 |
| Cc1ccccc1OCC1CCCN(c2cc(N)nc(N)n2)C1 (stereo not drawn) | 30.1 | 35.7 |
| CCC(C)Oc1cc(C(=O)NCC2(O)CCC2)ccn1 (stereo not drawn) | 29.6 | 62.8 |
| O=C(COc1ccc(F)cc1)Nc1ccon1 | > 501 | 186 |
| Cc1cc(N2CCNCC2)nc2ccccc12 | 93.7 | 140 |
| Cc1ccc(CNCCOc2ccccn2)o1 | 98.7 | > 501 |
| COc1cc(C)c(S(=O)(=O)N2C[C@@H](O)[C@@H](O)C2)cc1C | > 501 | 229 |
| CCCNC(=O)CSCc1nc(-c2ccccc2)no1 | 437 | 239 |
| COc1ccc(CCN2CCCNCC2)cc1 | 159 | 73.3 |
| OCCCNc1cccc(Cl)c1-n1cccn1 | > 501 | 183 |
| COc1cccc2c1OCC(C(=O)N1CCN(C3CCCC3)C(=O)C1)C2 (stereo not drawn) | > 50.1 | > 50.1 |
| CCC(C)NC(=O)c1cc(F)cc(F)c1 (stereo not drawn) | 229 | 130 |
| Cc1noc(CNC(CCO)C(C)C)n1 (stereo not drawn) | > 501 | > 501 |
| Cc1nc[nH]c1CN1CCCC12CCN(c1nc3ccccc3s1)CC2 | > 50.1 | 46 |

| SMILES | IC50 [1] [µM] | IC50 [2] [µM] |
| --- | --- | --- |
| C1CC(COCCc2noc(C3CNC3)n2)CCO1 | 279 | 337 |
| CNC(=O)NC(=O)CCN1CCc2ccccc2C1 | 201 | 196 |
| COCCC(C)NC(=O)Nc1ccc(C#N)cc1 (stereo not drawn) | 159 | 232 |
| CC(C)N(CCNC(=O)c1[nH]nc2ccc(I)cc12)C(C)C | 15.8 | 17.9 |
| Cc1cc(CN(C)Cc2csc(-c3ccc(C(C)C)cc3)n2)no1 | 37.9 | > 50.1 |
| CN(Cc1ccco1)C(=O)c1cc(C2CC2)[nH]n1 | 59.3 | 107 |
| CC(C)Oc1ccc(CSc2nnc(CN3CCCC3=O)o2)cc1 | 14.5 | 43.5 |
| CCc1nc2n(n1)CC(NCc1nc(C)c(C)o1)CC2 (stereo not drawn) | > 50.1 | > 50.1 |
| CCS(=O)(=O)N(C)CCCNc1ccc(Cl)cn1 | 163 | 129 |
| COc1ccc(CCCC(=O)N2CCC(CN)C2)cc1 (stereo not drawn) | > 501 | 230 |
| NCCc1nc(-c2cccc(Cl)c2)no1 | 190 | 122 |
| CC(C)NC(=O)Nc1cc(C(F)(F)F)c[nH]c1=O | 109 | 92.8 |
| C=C(C)COC(=O)c1ccc(-n2cncn2)cc1C | 279 | 182 |
| NS(=O)(=O)N1CCN(CCCc2cccc(F)c2)CC1 | > 501 | > 501 |
| N#CCCCn1nnc(-c2ccccc2)n1 | 178 | 191 |
| CN(CCOc1ccc(Cl)cc1)S(C)(=O)=O | 178 | 142 |
| NC(CN1CCOCC1)c1ccccc1 (stereo not drawn) | > 501 | > 501 |
| Cc1noc(C(C)Nc2ccc3c(c2)CCC3)n1 (stereo not drawn) | 3.32 | 5.68 |
| CCCc1nc(N2CC[C@@H](c3ccc4c(c3)OCO4)[C@H](O)C2)no1 | > 50.1 | 44.3 |
| FC(F)Oc1cccc(C2CNCCO2)c1 (stereo not drawn) | 112 | 34 |
| CCNC(=O)c1ccn(-c2ccccc2)n1 | 232 | 340 |
| CCN(C(=O)CN1CCCC1Cc1ccccc1)c1ccccc1 (stereo not drawn) | > 50.1 | 44.2 |
| COCCN(Cc1ccoc1)S(=O)(=O)c1ccc(F)c(Cl)c1 | > 50.1 | > 50.1 |
| CCc1ccccc1CN1C(=O)CCC1=O | > 501 | > 501 |
| O=c1c2ccccc2cnn1CN1CCCC1 | > 501 | > 501 |
| COc1cc(CCC(=O)N2CCC(c3cc4nccnc4[nH]3)CC2)on1 | > 50.1 | 30.7 |

| SMILES | IC50 [1] [µM] | IC50 [2] [µM] |
| --- | --- | --- |
| COc1ccc(CN2CCOC[C@H](OCCC(C)C)C2)cc1 | > 50.1 | > 50.1 |
| CC(Nc1ccc(C#N)cn1)c1ccc2c(c1)OCO2 (stereo not drawn) | 234 | 215 |
| CC(=O)N1CCC[C@H]1C(=O)NCCc1csc(C)n1 | > 501 | > 501 |
| COc1cccc(CN2CCC3(CC2)OCC(C)O3)c1 (stereo not drawn) | 244 | 394 |
| CN(Cc1cccc(C#N)c1)C(=O)C1CC1 | 133 | > 501 |
| CN(CCc1ccc(Br)cc1)C(=O)CCCN | > 501 | 179 |
| CC(CNC(=O)c1cnccn1)Oc1cccc(Br)c1 (stereo not drawn) | > 50.1 | 0.211 |
| COc1ccc2c(c1)CCN2C(=O)C(C)(C)C#N | 293 | 156 |
| COc1ccc(CN2C[C@H](O)[C@@H](N(C)C)C2)c(C)c1C | 349 | 105 |
| O=C(NCc1nnc2n1CCCCC2)N(Cc1ccncc1)C1CC1 | > 50.1 | > 50.1 |
| O=C(NCC(O)c1ccc(Cl)cc1)Nc1ccccn1 (stereo not drawn) | > 501 | 106 |
| COCc1n[nH]c2c1CN(C(=O)c1ccncc1)C2 | > 50.1 | 29.7 |
| CC(=O)N1CCC(CN(C)Cc2ccc(Br)o2)C1 (stereo not drawn) | > 501 | > 501 |
| CC(C)CCn1ccc(NC(=O)C2(O)CCC2)n1 | 331 | 308 |
| COC(=O)COc1ccc(C(C)=O)cc1Cl | 354 | 264 |
| CC(C(=O)NCc1cccs1)S(=O)(=O)C1CCCC1 (stereo not drawn) | > 501 | 164 |
| CS(=O)(=O)CCC(=O)N1C[C@@H]2CC[C@H](C1)N(Cc1ccccc1)C2=O | > 50.1 | > 50.1 |
| NS(=O)(=O)NCC1CCN(c2cccc(Br)c2)C1 (stereo not drawn) | 230 | 247 |
| CC(Sc1nnc[nH]1)C(=O)Nc1ccc(C#N)cc1 (stereo not drawn) | > 501 | > 501 |
| COc1cc(NC(=O)NCc2nncn2C)ccc1Br | > 501 | 218 |
| O=C(NCCCn1ncc2ccccc21)C1CC1 | 147 | 150 |
| NC(=O)c1cc(C2CCCN(C(=O)CCc3ccncc3)C2)n[nH]1 (stereo not drawn) | > 50.1 | > 50.1 |
| CC(C)NC(=O)NC(C)c1ccccc1 (stereo not drawn) | > 501 | > 501 |
| Cc1cccc(N2CCCC(N)C2)n1 (stereo not drawn) | 150 | 119 |
| Cc1nnc(SCc2ccc(Cl)s2)n1CC(N)=O | > 501 | > 501 |
| c1ccc(NCCNc2ccccn2)cc1 | 217 | 230 |

| SMILES | IC50 [1] [µM] | IC50 [2] [µM] |
| --- | --- | --- |
| CC(=O)c1ccc(S(C)(=O)=O)c(N2CCC(C)(C)C2)c1 | > 501 | > 501 |
| CCCNC(=O)c1cc(Br)c[nH]1 | > 501 | > 501 |
| CSCCC1c2nc[nH]c2CCN1Cc1[nH]c2ccc(F)cc2c1C (stereo not drawn) | > 50.1 | > 50.1 |
| N#Cc1ccccc1N1CCCC(N)C1 (stereo not drawn) | 142 | 79.7 |
| C=C(C)CCOC(=O)c1cc(C(N)=O)cs1 | 157 | 39.4 |
| OC1(CNCCN2CCc3ccccc32)CNCCOC1 (stereo not drawn) | > 50.1 | > 50.1 |
| CSc1ccc(CC(=O)N(C)Cc2ccon2)cc1 | > 501 | > 501 |
| CCC(CO)NCc1ccc(-c2ccc(F)c(Cl)c2)o1 (stereo not drawn) | 13.2 | 35.4 |
| CC(C)(C#N)C(=O)NCCNc1cccc(Br)c1 | 206 | 267 |
| CNC(=O)[C@@H](C)Nc1ccc(C(F)(F)F)cn1 | > 501 | > 501 |
| CCN1CCC(CNCc2c[nH]nc2C(C)(C)C)C1 (stereo not drawn) | 16.4 | > 50.1 |
| CN(Cc1ccc(Cl)s1)C(=O)C1CCN(C(N)=O)CC1 | > 501 | > 501 |
| Cc1ccc(CCNc2ncc(C)c(-c3ccnn3C)n2)s1 | > 50.1 | 11.2 |
| CC(CNCC(F)(F)CO)c1ccccc1 (stereo not drawn) | > 501 | > 501 |
| COC(=O)CSCC(=O)Nc1cc(F)cc(F)c1 | > 501 | 204 |
| COc1c(C)cnc(CSc2nnc(N)s2)c1C | > 50.1 | > 50.1 |
| COc1ccc(CC2CCN2)cc1 (stereo not drawn) | 250 | 212 |
| c1cnc(N2CC[C@@H](OCC3CC3)[C@@H]2Cc2cccnc2)nc1 | > 50.1 | > 50.1 |
| Cc1cc(Cl)ccc1C(=O)C1CCCN(Cc2cnc(N(C)C)s2)C1 (stereo not drawn) | 40.8 | 45.7 |
| Cc1cc(NCCC(=O)NC(C)C)nc(-c2ccncc2)n1 | > 50.1 | > 50.1 |
| CC(C)c1ccc(S(=O)(=O)C(C)C(N)=O)cc1 (stereo not drawn) | 190 | 284 |
| CC(C)n1cc(Br)cc1C(=O)NC1=NCCS1 | > 501 | 177 |
| CS(=O)(=O)NC[C@H]1OC[C@@H]2CCN(CCc3ccccc3)C[C@@H]21 | > 50.1 | > 50.1 |
| COc1cccc(CNc2ccccn2)c1O | > 501 | > 501 |
| Cc1nnc(SCCN)s1 | > 501 | > 501 |
| OC(CN1CCn2ccnc2C1)c1ccc(F)cc1 (stereo not drawn) | > 501 | 173 |
